Test results published in patent US8309550B2, “Kinase inhibitors and their use as pharmaceutical agents” (Shanghai Genomics, Inc., priority 2011, dated 2012).
Read-outs that look alike come from different tables or passages of the source.

Key:
lung carcinoma (H460) = test: Inhibition of tumor growth, NCI-H460 in SCID-bg mice; assay type: in vivo; details: oral once a day
Description: Tumor type: lung carcinoma (H460)
Treatment: Single PO dose for 21 days (starting at day 7 following tumor inoculation)
Endpoint: tumor volume and mean luciferase activity by Xenogen (Caliper) machine:
SCID-bg mice were implanted with NCI-H460 cells at 5×10^6 cells/mouse on Day 0. Compound 18 treatment began on Day 7. […] In model group, the vehicle was used instead of compound 18. Tumor volume and mean luciferase activity by Xenogen technology were measured once per there days.

MRC-5 = test: 72 h MTT cell viability MRC-5 (normal lung); assay type: cell-based; details: Homo sapiens, MRC5
Text: (§1) MIT cytotoxicity assay. The compounds of the invention were subjected to a standard cellular proliferation assay using human cell lines. HeLa cells (Human cervix adenocarcinoma cell line, ATCC NO, CCL-2); A549 cells (Human lung carcinoma cells line, ATCC NO, CCL-185); U2OS cells (Human osteosarcoma cell line, ATCC NO, HTB-96); Eca-109 cells (Human esophageal carcinoma cell line); HepG2 (Human hepatocellular liver carcinoma cell line, ATCC NO, HB-8065); K562 cells (Human chronic myelogenous leukemia cell line, ATCC NO, CCL-243); SK-MEL-28 (Human malignant melanoma cell line, ATCC NO, HTB-72); Molt-4 (Human acute lymphoblastic leukemia cell line, ATCC NO, CRL-1582); H460 (Human large cell lung cancer cell line, ATCC NO, HTB-177); MDA-MB-231 (Human breast adenocarcinoma cell line, ATCC NO, HTB-26); MCF7 (Human breast adenocarcinoma cell line, ATCC NO, HTB-22); ACHN (Human renal cell adenocarcinoma cell line, ATCC NO, CRL-1611); PC-3M (Human prostate adenocarcinoma cell line, ATCC NO CRL-1435); HL60 (Human acute promyelocytic leukemia cell line, ATCC NO, CCL-240); THP-1 (Human acute monocytic leukemia, ATCC NO, TIB-202); Jurkat (Human acute T cell leukemia cell line, ATCC NO, CRL-2063); HCT-116 (Human colorectal carcinoma cell line, ATCC NO, CCL-247); HT-29 (Human colorectal adenocarcinoma cell line, ATCC NO, HTB-38™); WI-38 (Human normal lung cell line, ATCC NO, CCL-75); MRC-5 (Human normal lung cell line, ATCC NO, CCL-171).
(§2) HepG2, MDA-MB-231, WI-38 and MRC-5 cells were obtained from Shanghai Institute of Cell Biology, Chinese Academy of Sciences (Shanghai 200031, China). A549, HeLa, K562, MCF7, ACHN, H460, U2OS, Eca-109, MCF7, HL60, THP-1, Jurkat, HCT-116, HT-29, PC-3M, SK-MEL-28, Molt-4, H460 and […] cells were purchased from ATCC (American Type Culture Collection, USA).
(§3) Standard 72 h MTT (thiazolye blue; 3-[4,5-dimethylthiazol-2-yl]-2,5-diphenyltetrazolium bromide) assays were performed. Briefly, the cell lines used in this study were recovered and cultured according to the conditions recommended. 4000 cells per well were seeded into 96-well plates according to doubling time and incubated overnight at 37° C. Compounds were prepared in DMSO and a ½ dilution series in 100 μl cell culture media, added to cells (in duplicates) with the final DMSO concentration of 0.025%, and incubated for 72 hrs at 37° C. MTT solution (5 mg/ml) was added at 10 μl per well and incubated in the dark at 37° C. for 4 hr. Culture medium and MTT solution was removed. MTT dye was solubilised with 100 μl per well of DMSO with agitation. Absorbance was read at 562 nm and data analyzed using Sigmoid curve-fitting software Origin 6.0 (MicroCal, LLC, USA) to determine IC50 value.

CDK7 = CDK7 (Homo sapiens, UniProt P50613); test: Kinase assay CDK7 (Table III); details: read-out: Target biochemical activity IC50 CDK7
Description: (§4) Kinase assays. The compounds were tested for their ability to inhibit kinases.

CDK9 = CDK9 (Homo sapiens, UniProt P50750); test: CDK9 inhibitory activity, kinase assays (Table III); details: read-out: Target biochemical activity IC50 CDK9
Description: as §4

SRC = SRC (Homo sapiens, UniProt P12931); test: Kinase assay SRC (Table III); details: read-out: Target biochemical activity IC50 SRC
Description: as §4

HepG2 = test: 72 h MTT cytotoxicity assay HepG2; assay type: cell-based; details: Homo sapiens; HepG2, 72 hrs
Text: as §1, §2, §3

A549 cells = test: 72 h MTT cytotoxicity assay A549; assay type: cell-based; details: Homo sapiens; A549, 72 hrs
Text: as §1, §2, §3

Molt-4-luc = test: 72 h MTT cytotoxicity assay Molt-4-luc; assay type: cell-based; details: Homo sapiens
Text: as §1, §2, §3

TSSK1 = target: T1, TSSK1 (Homo sapiens, UniProt Q9BXA7); test: Kinase assay TSSK1 (Table III); details: read-out: Target biochemical activity IC50 TSSK1
T1 sequence (Q9BXA7 1-367): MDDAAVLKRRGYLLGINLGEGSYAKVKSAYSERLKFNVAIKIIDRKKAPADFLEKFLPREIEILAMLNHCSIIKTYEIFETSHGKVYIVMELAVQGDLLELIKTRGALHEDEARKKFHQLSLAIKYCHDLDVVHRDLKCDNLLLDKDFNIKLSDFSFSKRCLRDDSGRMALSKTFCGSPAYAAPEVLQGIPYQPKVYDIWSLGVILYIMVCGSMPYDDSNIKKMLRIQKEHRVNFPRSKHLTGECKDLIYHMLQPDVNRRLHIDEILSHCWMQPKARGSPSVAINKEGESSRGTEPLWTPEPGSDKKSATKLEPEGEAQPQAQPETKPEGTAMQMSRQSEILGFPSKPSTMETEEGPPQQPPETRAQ
Description: as §4

[1] = MRC-5, normal lung cell line, read-out: Cell Viability IC50 MRC-5
[2] = MRC-5, Table III, read-out: Cellular effect in mammalian cells IC50 MRC-5

SRC, sequence (P12931 whole entry, species assumed): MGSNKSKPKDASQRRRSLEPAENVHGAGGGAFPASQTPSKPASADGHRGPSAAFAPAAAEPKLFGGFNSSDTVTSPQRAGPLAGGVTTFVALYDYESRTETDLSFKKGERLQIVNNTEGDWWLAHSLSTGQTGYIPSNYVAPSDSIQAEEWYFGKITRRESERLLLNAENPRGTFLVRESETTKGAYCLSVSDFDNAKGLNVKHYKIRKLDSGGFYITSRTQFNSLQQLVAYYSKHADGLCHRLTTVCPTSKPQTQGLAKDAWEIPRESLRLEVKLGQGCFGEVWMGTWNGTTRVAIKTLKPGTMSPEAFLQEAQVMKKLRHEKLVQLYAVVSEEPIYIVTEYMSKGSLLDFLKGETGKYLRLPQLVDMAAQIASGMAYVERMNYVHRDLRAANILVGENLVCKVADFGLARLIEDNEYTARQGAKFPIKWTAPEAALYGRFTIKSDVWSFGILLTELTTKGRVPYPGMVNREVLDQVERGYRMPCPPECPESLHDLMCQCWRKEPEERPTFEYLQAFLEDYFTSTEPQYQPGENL
CDK9, sequence (P50750 whole entry, species assumed): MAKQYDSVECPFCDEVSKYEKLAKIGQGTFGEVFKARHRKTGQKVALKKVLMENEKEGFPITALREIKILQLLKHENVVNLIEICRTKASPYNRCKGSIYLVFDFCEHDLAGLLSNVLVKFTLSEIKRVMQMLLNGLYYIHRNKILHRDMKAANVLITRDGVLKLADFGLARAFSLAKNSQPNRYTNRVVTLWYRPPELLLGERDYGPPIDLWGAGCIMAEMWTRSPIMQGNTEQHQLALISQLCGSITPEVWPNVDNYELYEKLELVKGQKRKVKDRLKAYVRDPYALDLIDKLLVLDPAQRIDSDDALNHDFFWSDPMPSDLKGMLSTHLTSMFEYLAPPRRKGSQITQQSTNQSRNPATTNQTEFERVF
CDK9, sequence (O60563 whole entry partner, species assumed): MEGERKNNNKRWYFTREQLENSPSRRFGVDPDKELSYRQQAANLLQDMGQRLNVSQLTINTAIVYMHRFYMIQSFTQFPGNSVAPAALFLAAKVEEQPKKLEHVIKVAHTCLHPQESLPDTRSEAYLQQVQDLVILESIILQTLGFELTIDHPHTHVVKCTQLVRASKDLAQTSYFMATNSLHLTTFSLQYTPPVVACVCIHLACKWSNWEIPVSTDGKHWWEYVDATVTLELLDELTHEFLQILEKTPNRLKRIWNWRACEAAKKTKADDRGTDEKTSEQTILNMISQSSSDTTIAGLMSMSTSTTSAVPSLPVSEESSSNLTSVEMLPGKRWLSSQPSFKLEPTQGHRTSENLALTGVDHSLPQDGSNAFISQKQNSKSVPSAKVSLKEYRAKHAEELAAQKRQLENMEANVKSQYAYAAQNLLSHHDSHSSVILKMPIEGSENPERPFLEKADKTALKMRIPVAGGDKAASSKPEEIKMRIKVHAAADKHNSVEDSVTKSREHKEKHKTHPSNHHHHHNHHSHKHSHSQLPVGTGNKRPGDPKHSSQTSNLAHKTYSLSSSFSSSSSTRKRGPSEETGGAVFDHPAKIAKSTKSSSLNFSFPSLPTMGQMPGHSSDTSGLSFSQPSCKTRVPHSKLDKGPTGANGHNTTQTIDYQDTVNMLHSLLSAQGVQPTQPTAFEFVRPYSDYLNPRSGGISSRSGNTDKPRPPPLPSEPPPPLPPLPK
CDK7, sequence (P50613 whole entry, species assumed): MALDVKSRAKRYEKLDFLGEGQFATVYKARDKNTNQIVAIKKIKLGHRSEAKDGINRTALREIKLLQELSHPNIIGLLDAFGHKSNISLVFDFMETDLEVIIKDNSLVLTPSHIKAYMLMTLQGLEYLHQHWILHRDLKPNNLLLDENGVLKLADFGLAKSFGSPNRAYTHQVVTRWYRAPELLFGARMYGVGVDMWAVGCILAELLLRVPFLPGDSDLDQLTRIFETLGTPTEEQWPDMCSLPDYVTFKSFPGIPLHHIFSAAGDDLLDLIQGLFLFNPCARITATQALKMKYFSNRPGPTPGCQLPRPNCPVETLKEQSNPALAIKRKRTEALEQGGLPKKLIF
CDK7, sequence (P51946 whole entry partner, species assumed): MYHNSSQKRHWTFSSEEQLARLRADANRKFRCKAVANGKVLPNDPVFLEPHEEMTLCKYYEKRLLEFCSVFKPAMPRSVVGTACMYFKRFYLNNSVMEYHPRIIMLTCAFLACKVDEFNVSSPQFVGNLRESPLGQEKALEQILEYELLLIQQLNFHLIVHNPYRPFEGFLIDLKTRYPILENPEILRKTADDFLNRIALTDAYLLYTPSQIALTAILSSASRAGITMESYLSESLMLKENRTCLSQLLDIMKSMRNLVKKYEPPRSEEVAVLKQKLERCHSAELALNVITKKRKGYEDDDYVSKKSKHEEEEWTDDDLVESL
CDK7, sequence (P51948 whole entry partner, species assumed): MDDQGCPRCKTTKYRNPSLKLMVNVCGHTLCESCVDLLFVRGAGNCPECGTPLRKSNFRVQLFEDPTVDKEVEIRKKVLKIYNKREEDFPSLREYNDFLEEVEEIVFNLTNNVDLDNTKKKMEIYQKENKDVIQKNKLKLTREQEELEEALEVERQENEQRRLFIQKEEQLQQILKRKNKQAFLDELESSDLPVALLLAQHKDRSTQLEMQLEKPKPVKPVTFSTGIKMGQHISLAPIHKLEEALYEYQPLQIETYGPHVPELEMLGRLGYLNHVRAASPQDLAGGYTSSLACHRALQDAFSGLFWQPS

CCn1cc(-c2ccnc(Nc3cccc(S(N)(=O)=O)c3)n2)c2cccnc21 [Compound 18, 3-(4-(1-Ethyl-1H-pyrrolo[2,3-b]pyridin-3-yl)pyrimidin-2-ylamino)benzenesulfonamide]
% Tumor Growth Inhibition at Day 21 (lung carcinoma (H460); 20 mg/kg): 41.3% | % Tumor Growth Inhibition at Day 21 (lung carcinoma (H460); 150 mg/kg): 56.5% | IC50 (MRC-5; [1]): 13300 nM | IC50 (CDK7): 146 nM | IC50 (CDK9): 13 nM | IC50 (SRC): 1050 nM | IC50 (HepG2): 680 nM | IC50 (A549 cells): 1210 nM | IC50 (Molt-4-luc): 1050 nM

CCCn1cc(-c2ccnc(Nc3cccc(S(N)(=O)=O)c3)n2)c2cccnc21 [Compound 22, 3-(4-(1-Propyl-1H-pyrrolo[2,3-b]pyridin-3-yl)pyrimidin-2-ylamino)benzenesulfonamide]
IC50 (MRC-5; [1]): 5170 nM | IC50 (HepG2): 700 nM | IC50 (A549 cells): 2820 nM | IC50 (Molt-4-luc): 2450 nM

CCCn1cc(-c2ccnc(Nc3cccc(S(N)(=O)=O)c3)n2)c2ccncc21 [SG51]
IC50 (CDK7): 43 nM | IC50 (TSSK1): 1.6 nM | IC50 (CDK9): 0.6 nM | IC50 (SRC): 200 nM

CCCn1cc(-c2ccnc(Nc3ccc(S(N)(=O)=O)cc3)n2)c2ccncc21 [Compound 112, 4-(4-(1-Propyl-1H-pyrrolo[2,3-c]pyridin-3-yl)pyrimidin-2-ylamino)benzenesulfonamide]
IC50 (MRC-5; [1]): > 10000 nM | IC50 (HepG2): 470 nM | IC50 (A549 cells): 30 nM | IC50 (Molt-4-luc): 20 nM

CCCn1cc(-c2ccnc(Nc3cccc(O)c3)n2)c2cccnc21 [Compound 16, 3-(4-(1-Propyl-1H-pyrrolo[2,3-b]pyridin-3-yl)pyrimidin-2-ylamino)phenol]
IC50 (HepG2): 1600 nM | IC50 (A549 cells): 3330 nM | IC50 (Molt-4-luc): 3820 nM

CCCn1cc(-c2ccnc(Nc3cccc(S(N)(=O)=O)c3)n2)c2ccncc21 [Compound 111, 3-(4-(1-Propyl-1H-pyrrolo[2,3-c]pyridin-3-yl)pyrimidin-2-ylamino)benzenesulfonamide]
IC50 (MRC-5; [1]): 60 nM | IC50 (HepG2): 580 nM | IC50 (A549 cells): 10 nM | IC50 (Molt-4-luc): 10 nM

CCCn1cc(-c2ccnc(Nc3ccc(O)cc3)n2)c2cccnc21 [Compound 15, 4-(4-(1-Propyl-1H-pyrrolo[2,3-b]pyridin-3-yl)pyrimidin-2-ylamino)phenol]
IC50 (HepG2): 1160 nM | IC50 (A549 cells): 4980 nM | IC50 (Molt-4-luc): 2460 nM

CCCn1cc(-c2ccnc(Nc3cccc(S(N)(=O)=O)c3)n2)c2nc(Cl)cc(C)c21 [SG53]
IC50 (CDK7): > 10000 nM | IC50 (TSSK1): > 10000 nM | IC50 (CDK9): 41 nM | IC50 (SRC): > 10000 nM

CCCn1cc(-c2ccnc(Nc3cccc(S(N)(=O)=O)c3)n2)c2nc(Cl)cc(C)c21 [Compound 42, 3-(4-(5-Chloro-7-methyl-1-propyl-1H-pyrrolo[3,2-b]pyridin-3-yl)pyrimidin-2-ylamino)benzenesulfonamide]
IC50 (MRC-5; [1]): 14600 nM | IC50 (HepG2): 550 nM | IC50 (A549 cells): 1730 nM | IC50 (Molt-4-luc): 4790 nM

CCCn1cc(-c2ccnc(Nc3ccc(C)c(S(=O)(=O)N4CCOCC4)c3)n2)c2ccncc21 [SG52]
IC50 (MRC-5; [2]): 1630 nM | IC50 (CDK7): 1950 nM | IC50 (TSSK1): > 10000 nM | IC50 (CDK9): 0.4 nM | IC50 (SRC): 3930 nM

CCCn1cc(-c2ccnc(Nc3ccc(C)c(S(=O)(=O)N4CCOCC4)c3)n2)c2ccncc21 [Compound 102, N-(4-Methyl-3-(morpholinosulfonyl)phenyl)-4-(1-propyl-1H-pyrrolo[2,3-c]pyridin-3-yl)pyrimidin-2-amine]
IC50 (HepG2): 500 nM | IC50 (A549 cells): 570 nM | IC50 (Molt-4-luc): 230 nM

CCCn1cc(-c2ccnc(Nc3ccc(C)c(S(=O)(=O)N4CCOCC4)c3)n2)c2cccnc21 [Compound 24, N-(4-Methyl-3-(morpholinosulfonyl)phenyl)-4-(1-propyl-1H-pyrrolo[2,3-b]pyridin-3-yl)pyrimidin-2-amine]
IC50 (MRC-5; [1]): 3880 nM | IC50 (HepG2): 1320 nM | IC50 (A549 cells): 3690 nM | IC50 (Molt-4-luc): 4510 nM

CCn1cc(-c2ccnc(Nc3cccc(C#N)c3)n2)c2cccnc21 [Compound 20, 3-(4-(1-Ethyl-1H-pyrrolo[2,3-b]pyridin-3-yl)pyrimidin-2-ylamino)benzonitrile]
IC50 (MRC-5; [1]): 15100 nM | IC50 (HepG2): 1810 nM | IC50 (A549 cells): 3070 nM | IC50 (Molt-4-luc): 3430 nM

CCCn1cc(-c2ccnc(Nc3cccc(S(N)(=O)=O)c3)n2)c2ccnc(Cl)c21 [Compound 96, 3-(4-(7-chloro-1-propyl-1H-pyrrolo[2,3-c]pyridin-3-yl)pyrimidin-2-ylamino)benzenesulfonamide]
IC50 (MRC-5; [1]): 890 nM | IC50 (HepG2): 250 nM | IC50 (A549 cells): 120 nM | IC50 (Molt-4-luc): 220 nM

CCCn1cc(-c2ccnc(Nc3ccc(S(N)(=O)=O)cc3)n2)c2nc(Cl)cc(C)c21 [SG54]
IC50 (MRC-5; [2]): 3970 nM | IC50 (CDK7): > 10000 nM | IC50 (TSSK1): > 10000 nM | IC50 (CDK9): 57 nM | IC50 (SRC): > 10000 nM
